For orientation: CC50 means the concentration at which the toxic effect on the cells reaches its halfway point. The IC50 is the point on the concentration scale where inhibition reaches its midpoint. The Ki is the dissociation constant of the complex between target and ligand, obtained from inhibition or displacement.

The structures appear in SMILES notation. Active and inactive are the calls of the source. A value given as a limit tells only on which side of the number the result lay.

Experimental findings from ChEMBL document CHEMBL1201862, “PubChem BioAssay data set” (2004) are described below.

Assay [1] in a line: THP-1 cell cytotoxicity, cytotoxicity control, set 4 (AID 504911). The assay is classed as functional. The settings on record: Mycobacterium tuberculosis.
A further assay has as its system H9c2. Nature of the assay: cells. The assay is classed as functional, cell-based. The settings on record: Rattus norvegicus, H9c2, Myocardium.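 Note: confirmatory concentration-response retest of ultra-high-throughput screening hits for modulation of myocardial damage; cell death induced by hydrogen peroxide oxidative stress; compound pretreatment for 60 min then peroxide exposure for 2 h; potency is for protecting the cells against peroxide damage rather than for killing them.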
For assay [2], the target named is T1, Sentrin-specific protease 8 (Homo sapiens, UniProt Q96LD8).
T1 sequence (Q96LD8 whole entry): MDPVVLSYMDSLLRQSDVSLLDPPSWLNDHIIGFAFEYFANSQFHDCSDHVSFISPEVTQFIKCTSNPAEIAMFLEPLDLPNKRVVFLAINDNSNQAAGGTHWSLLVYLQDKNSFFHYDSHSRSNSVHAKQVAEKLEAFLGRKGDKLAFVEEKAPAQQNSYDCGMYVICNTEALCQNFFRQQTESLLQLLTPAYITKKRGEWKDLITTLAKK
Nature of the assay: inhibition of human SENP8 cleavage activity – biochemical, luminescence, SAR follow-up (AID 504501). Format: functional.

In assay [3] the target is T2, Sentrin-specific protease 6 (Homo sapiens, UniProt Q9GZR1).
T2 sequence (Q9GZR1 whole entry): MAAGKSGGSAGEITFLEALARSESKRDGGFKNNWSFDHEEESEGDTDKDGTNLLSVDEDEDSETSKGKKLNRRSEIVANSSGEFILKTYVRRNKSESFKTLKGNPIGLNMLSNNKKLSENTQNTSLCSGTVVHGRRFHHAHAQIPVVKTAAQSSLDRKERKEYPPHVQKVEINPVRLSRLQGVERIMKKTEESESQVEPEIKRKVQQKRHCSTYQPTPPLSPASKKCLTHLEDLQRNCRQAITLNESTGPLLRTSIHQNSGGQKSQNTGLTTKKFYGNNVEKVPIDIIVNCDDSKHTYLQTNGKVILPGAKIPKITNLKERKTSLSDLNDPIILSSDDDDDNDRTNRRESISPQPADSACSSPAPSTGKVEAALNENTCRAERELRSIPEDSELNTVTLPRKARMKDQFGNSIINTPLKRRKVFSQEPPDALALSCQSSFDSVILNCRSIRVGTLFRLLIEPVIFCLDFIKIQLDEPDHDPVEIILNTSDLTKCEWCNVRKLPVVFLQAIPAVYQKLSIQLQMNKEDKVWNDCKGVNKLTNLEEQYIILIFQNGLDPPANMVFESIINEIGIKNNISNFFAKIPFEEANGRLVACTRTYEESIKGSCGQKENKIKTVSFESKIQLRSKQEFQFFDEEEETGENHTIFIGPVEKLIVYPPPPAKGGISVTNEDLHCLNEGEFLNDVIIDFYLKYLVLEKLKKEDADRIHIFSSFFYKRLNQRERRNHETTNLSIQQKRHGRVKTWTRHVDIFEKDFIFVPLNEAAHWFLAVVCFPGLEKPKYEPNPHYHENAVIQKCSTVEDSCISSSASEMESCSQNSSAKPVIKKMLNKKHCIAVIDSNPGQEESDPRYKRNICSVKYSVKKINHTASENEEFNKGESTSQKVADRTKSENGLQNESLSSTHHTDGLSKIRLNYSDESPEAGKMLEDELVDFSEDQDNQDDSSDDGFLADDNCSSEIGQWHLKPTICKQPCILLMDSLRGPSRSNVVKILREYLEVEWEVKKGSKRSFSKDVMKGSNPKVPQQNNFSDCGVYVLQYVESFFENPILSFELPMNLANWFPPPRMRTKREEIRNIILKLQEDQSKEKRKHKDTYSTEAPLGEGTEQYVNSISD
As to the kind of experiment: SAR Analysis of small molecule inhibitors of Sentrin-specific protease 6 (SENP6) using a Luminescent assay. [Related pubchem assays (depositor defined):AID2582, AID2599]. The assay is classed as functional.

For assay [4], the target named is T3, Sentrin-specific protease 7 (Homo sapiens, UniProt Q9BQF6).
T3 sequence (Q9BQF6 whole entry): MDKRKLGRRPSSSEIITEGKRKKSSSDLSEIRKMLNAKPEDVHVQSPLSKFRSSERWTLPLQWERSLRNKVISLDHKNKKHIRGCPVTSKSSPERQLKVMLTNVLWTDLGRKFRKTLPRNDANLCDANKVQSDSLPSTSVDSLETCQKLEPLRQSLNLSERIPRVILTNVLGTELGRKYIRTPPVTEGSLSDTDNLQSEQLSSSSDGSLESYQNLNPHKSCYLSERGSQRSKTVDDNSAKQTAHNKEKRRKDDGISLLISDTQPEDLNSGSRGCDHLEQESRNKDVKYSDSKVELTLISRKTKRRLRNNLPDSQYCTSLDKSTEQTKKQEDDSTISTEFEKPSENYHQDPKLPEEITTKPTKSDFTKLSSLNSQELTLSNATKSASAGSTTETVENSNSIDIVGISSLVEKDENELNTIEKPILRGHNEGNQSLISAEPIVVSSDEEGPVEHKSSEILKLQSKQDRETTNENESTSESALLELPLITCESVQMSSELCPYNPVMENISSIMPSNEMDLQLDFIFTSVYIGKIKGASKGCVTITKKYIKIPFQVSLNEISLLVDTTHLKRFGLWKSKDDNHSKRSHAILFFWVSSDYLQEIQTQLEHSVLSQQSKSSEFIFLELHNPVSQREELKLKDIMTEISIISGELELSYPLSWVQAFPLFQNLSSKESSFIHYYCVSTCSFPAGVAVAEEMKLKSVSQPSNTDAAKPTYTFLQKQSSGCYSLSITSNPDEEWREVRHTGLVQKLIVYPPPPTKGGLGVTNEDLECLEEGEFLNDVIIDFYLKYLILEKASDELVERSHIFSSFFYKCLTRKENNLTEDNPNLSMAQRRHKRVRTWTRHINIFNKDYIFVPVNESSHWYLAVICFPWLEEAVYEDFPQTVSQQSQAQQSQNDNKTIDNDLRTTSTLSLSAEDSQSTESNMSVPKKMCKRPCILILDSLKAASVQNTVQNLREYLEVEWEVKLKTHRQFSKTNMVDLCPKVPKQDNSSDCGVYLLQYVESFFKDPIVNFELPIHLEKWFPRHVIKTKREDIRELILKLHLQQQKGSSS
Nature of the assay: inhibition of human SENP7 cleavage activity – biochemical, luminescence, SAR follow-up (AID 504497). Format: functional.

The next assay addresses T4, Caspase-3 (Homo sapiens, UniProt P42574).
T4 sequence (P42574 whole entry): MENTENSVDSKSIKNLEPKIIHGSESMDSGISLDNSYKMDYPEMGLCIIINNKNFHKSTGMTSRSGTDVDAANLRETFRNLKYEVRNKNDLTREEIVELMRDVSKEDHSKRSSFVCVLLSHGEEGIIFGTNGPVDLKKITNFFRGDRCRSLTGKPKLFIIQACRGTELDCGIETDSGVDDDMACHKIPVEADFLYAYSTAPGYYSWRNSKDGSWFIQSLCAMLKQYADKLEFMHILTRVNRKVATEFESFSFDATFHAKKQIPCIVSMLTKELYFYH
As to the kind of experiment: SAR Analysis of small molecule inhibitors of Sentrin-specific proteases (SENPs) using a Caspase-3 Selectivity assay. [Related pubchem assays (depositor defined):AID2540, AID2599, AID434973, AID489001]. Format: functional.

The target in assay [5] is Vascular endothelial growth factor receptor 2 (Homo sapiens, UniProt P35968). Format: functional.
Vascular endothelial growth factor receptor 2, sequence (P35968 whole entry): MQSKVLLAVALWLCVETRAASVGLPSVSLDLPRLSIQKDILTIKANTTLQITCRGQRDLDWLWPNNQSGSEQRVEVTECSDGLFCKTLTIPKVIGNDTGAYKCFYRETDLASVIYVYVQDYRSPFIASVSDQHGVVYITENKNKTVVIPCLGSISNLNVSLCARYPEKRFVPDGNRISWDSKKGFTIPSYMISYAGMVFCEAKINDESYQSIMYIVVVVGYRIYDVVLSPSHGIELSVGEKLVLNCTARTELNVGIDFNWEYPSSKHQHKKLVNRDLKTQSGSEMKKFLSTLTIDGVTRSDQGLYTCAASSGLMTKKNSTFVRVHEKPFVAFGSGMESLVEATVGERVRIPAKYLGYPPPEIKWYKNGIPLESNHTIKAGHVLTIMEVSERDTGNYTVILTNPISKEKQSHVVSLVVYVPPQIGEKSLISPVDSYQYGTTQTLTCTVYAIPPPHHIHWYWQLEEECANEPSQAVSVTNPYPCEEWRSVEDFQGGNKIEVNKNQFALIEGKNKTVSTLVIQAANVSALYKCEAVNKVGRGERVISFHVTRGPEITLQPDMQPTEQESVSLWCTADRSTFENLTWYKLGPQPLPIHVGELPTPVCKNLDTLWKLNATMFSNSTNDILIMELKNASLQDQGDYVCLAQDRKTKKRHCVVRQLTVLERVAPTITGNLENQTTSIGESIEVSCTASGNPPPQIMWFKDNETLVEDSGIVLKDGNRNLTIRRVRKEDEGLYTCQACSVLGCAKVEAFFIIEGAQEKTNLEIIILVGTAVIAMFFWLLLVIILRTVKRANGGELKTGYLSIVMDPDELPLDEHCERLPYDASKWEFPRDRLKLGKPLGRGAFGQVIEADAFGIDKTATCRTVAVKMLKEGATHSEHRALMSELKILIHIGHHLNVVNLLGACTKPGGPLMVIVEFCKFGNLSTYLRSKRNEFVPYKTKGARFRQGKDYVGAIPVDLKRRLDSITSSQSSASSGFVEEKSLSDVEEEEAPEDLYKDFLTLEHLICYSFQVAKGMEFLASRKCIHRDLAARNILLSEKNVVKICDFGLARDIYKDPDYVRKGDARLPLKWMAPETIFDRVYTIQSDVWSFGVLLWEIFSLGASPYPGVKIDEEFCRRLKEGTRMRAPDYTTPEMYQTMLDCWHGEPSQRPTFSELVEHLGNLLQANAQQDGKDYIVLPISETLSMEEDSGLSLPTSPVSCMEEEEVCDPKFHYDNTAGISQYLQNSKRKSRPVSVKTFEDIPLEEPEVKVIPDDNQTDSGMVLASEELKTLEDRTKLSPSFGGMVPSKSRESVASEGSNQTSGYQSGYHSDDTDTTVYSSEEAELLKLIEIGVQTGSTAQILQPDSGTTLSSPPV
Another assay has as its target Aurora kinase A (Homo sapiens, UniProt O14965). Format: functional.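 Note: value from the Navigating the Kinome kinase panel profiling, panel entry STK6.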
The target in a further assay is Aurora kinase B (Homo sapiens, UniProt Q96GD4). The assay is classed as functional.
Aurora kinase B, sequence (Q96GD4 whole entry): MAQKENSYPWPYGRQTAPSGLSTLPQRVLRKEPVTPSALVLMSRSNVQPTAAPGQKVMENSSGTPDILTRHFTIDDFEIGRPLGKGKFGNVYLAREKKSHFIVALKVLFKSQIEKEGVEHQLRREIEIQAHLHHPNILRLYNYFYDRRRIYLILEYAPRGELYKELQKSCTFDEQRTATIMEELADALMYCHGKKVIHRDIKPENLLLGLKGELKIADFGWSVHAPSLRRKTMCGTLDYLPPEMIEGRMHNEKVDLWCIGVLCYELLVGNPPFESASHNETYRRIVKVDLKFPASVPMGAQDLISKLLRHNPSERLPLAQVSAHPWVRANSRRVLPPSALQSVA
Assay [6] concerns the target T5, Apoptotic protease-activating factor 1 (Homo sapiens, UniProt O14727).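 Note: caspase-3 cleavage of fluorogenic Rh110 DEVD substrate downstream of apoptosome activation.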
T5 sequence (O14727 whole entry): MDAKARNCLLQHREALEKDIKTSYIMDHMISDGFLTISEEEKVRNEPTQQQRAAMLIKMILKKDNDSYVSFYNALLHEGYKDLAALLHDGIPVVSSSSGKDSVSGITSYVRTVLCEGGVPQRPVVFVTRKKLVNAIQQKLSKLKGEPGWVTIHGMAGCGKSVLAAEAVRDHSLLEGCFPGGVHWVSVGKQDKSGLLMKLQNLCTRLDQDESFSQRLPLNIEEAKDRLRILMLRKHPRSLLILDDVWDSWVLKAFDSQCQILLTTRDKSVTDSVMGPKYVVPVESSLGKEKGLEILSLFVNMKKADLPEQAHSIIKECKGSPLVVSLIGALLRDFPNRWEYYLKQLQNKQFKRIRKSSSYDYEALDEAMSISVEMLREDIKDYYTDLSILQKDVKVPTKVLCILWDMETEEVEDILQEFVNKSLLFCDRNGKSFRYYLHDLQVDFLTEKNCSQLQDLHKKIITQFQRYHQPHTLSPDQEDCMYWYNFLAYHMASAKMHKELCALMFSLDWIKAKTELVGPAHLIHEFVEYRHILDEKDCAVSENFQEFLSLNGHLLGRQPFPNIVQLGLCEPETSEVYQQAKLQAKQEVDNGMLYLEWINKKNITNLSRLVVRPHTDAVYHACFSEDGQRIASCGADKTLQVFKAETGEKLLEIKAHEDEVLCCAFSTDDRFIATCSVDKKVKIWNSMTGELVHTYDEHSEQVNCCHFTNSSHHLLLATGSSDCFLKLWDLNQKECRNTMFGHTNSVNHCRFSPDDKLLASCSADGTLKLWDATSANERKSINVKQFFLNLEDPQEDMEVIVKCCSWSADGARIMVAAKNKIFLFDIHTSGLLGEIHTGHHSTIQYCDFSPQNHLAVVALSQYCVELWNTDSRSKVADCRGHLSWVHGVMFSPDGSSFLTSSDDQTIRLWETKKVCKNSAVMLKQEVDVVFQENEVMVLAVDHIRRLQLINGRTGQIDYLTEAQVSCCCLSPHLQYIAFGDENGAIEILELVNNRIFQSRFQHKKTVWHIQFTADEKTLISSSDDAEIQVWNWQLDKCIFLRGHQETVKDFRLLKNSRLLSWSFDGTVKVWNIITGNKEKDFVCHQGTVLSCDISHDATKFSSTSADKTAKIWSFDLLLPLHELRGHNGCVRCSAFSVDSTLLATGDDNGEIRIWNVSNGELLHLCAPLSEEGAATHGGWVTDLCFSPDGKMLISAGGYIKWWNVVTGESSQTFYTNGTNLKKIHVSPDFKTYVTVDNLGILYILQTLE
As to the kind of experiment: SAR analysis of small molecule Activators of Apaf-1 in a Fluorescent assay. The assay is classed as functional. Particulars: read-out: EC50_Mean.

Aurora kinase A, sequence (O14965 whole entry): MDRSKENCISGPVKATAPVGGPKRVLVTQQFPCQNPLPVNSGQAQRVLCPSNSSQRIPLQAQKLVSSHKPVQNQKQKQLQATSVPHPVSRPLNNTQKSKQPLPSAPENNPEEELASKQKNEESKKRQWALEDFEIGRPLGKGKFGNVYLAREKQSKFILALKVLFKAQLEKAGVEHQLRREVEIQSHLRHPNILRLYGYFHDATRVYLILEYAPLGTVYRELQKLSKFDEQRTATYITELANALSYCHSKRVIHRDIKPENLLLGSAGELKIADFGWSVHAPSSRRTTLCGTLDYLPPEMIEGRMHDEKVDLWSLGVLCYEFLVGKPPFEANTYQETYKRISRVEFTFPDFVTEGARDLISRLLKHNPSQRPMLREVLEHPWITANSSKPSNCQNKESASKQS

As to `O=C(CSc1nc(O)c2ccccc2n1)N1CCOCC1`, the CC50 in [1] was > 100 µM (active). The IC50 with H9c2 is 25.9 µM (active).

As for `N#Cc1ccc(-c2nc(/C=C/c3ccccc3)no2)cc1`, the IC50 (in [2]; in assay [3]; in [4]; at Caspase-3) was > 99 µM (inactive) throughout.

With `NC(=NO)c1cccc(S(=O)(=O)Nc2ccc3c(c2)C(=NO)c2ccccc2-3)c1`, the Ki in assay [5] is > 5.01 µM (inactive); on Aurora kinase A, 1 µM (active); at Aurora kinase B, 0.02 µM (active).

Regarding `O=C(Nc1ccc(-n2cnc3ccccc32)cc1)Nc1cccc(C(F)(F)F)c1`, the inhibition constant Ki in [5] was 0.00316 µM (active); on Aurora kinase A, 0.501 µM (active); at Aurora kinase B, 0.00251 µM (active).

With `CCOC(=O)C1CCc2[nH]c3ccc(OC)cc3c2C1` (stereo not drawn), the EC50 in assay [6] is > 100 µM (inactive).
